Holding throughout (experiment): DTP human tumour cell line panel, 48 h
The test system of test [1] is DU-145 prostate.
Test [2] has as its system M14 melanoma.
The subject of test [3] is MDA-MB-231 breast.
Test [4] deals with MOLT-4 leukemia.
The subject of test [5] is NCI-H522 lung.
The subject of test [6] is OVCAR-5 ovarian.
Test [7] relates to RPMI-8226 leukemia.
Test [8] concerns RXF 393 renal.
Test [9] has as its system SR leukemia.
In test [10] the test system is UO-31 renal.

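Dose response: 5 concentrations. Exposure: 48 h. Format: 96-well plates. Endpoint: linear interpolation; highest concentration if not reached. The concentration for 50% growth inhibition is given as GI50. TGI is the concentration that stops growth completely.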 Some results are limits rather than exact numbers.

By GI50 is commonly meant the concentration that inhibits growth by half. What is called TGI is the concentration at which net growth stops. With `CN(C)c1ccc(Sc2ccc3nc(N)nc(N)c3c2)cc1`, the GI50 in test [1] was 0.793 µM; in test [2], 0.363 µM; in test [3] it was 2.23 µM; in [4], 0.635 µM; in test [5] it was 0.934 µM; in test [6], 1.16 µM. Besides, the GI50 is 2.92 µM in [7], 1.06 µM in test [8], 0.629 µM in [9] and 1.12 µM in test [10]. Moreover, the TGI came out at 12.1 µM in test [1]; 2.13 µM in test [2]; 14.1 µM in [3]; 16 µM in [4]; 11.7 µM in test [5]; 21 µM in test [6]. Besides, the TGI in test [7] amounted to 10.9 µM; in [8], 11.3 µM; in test [9], 6.71 µM; in [10], 13.6 µM.
In the case of `CC(C)(C)NCCC(O)c1cc(C(F)(F)F)nc2c(C(F)(F)F)cccc12` (stereo unspecified), the TGI in [1] turned out to be 6.17 µM; in test [2] it was 19.4 µM; in [3], 22.8 µM; in test [4] it was 18.6 µM; in test [5] it was 25.1 µM; in test [6], 29.3 µM. The TGI in test [7] came to 17.1 µM; in [8] it was 19.2 µM; in test [9] it was 13.5 µM; in [10], 1.34 µM.
As to `N#CC1(C#N)C2C=CC(C3CCC=C32)C1(C#N)C#N` (stereo unspecified), the TGI in test [1] was more than 10 µM; in test [2] it was more than 10 µM; in test [3], more than 10 µM; in test [4], 6.52 µM; in [5] it was more than 7.9 µM; in test [6], more than 10 µM. Also, the TGI is 8.79 µM in [7], more than 10 µM in test [8], more than 10 µM in test [9] and more than 5.88 µM in test [10].
Consider `CCC1(N2C(=O)c3c(F)c(F)c(F)c(F)c3C2=O)C(=O)NC(=O)N(c2ccccc2)C1=O` (stereo unspecified), for which the GI50 is 4.87 µM in [1]; 4.46 µM in [2]; 1.7 µM in test [3]; 2.64 µM in test [4]; 3.13 µM in test [5]; 1.69 µM in [6]. Besides, the GI50 in [7] is 0.331 µM; in test [8], 2.75 µM; in test [9], 0.496 µM; in [10] it was 17.1 µM. In addition, the TGI was 17.9 µM in [1]; 19.4 µM in test [2]; 4.03 µM in [3]; 6.35 µM in test [4]; 26.2 µM in test [5]; 3.43 µM in test [6]. For the same molecule, the TGI in [7] turned out to be 2.58 µM; in [8], 15.5 µM; in test [9], 4.32 µM; in test [10] it was 63.7 µM.
For the molecule `O=C(CN=Cc1cccs1)CSC(c1ccccc1)c1ccccc1`, the GI50 in [1] is 34 µM; in test [2] it was 22 µM; in test [3] it was 24.5 µM; in test [4], 18.5 µM; in test [6], 44.3 µM; in test [7], 12.1 µM. Moreover, the GI50 in [8] and in [9] was 17.1 µM in each case. Also, the TGI is more than 100 µM in test [1]; 55.5 µM in [2]; 95.6 µM in test [3]; 69.1 µM in test [4]; more than 100 µM in [6]; 28.7 µM in [7]. The TGI in test [8] was determined as 44.1 µM; in test [9], 54.1 µM.
Regarding `CCOP(=O)(OCC)C(F)(F)CC1CCCCC1`, the TGI in test [1], in [2], in [3], in [4], in test [6] and in [7] was more than 10 µM throughout. The TGI in test [8], in [9] and in test [10] was more than 10 µM throughout.
Consider `COCCCN1C(=O)C2c3[nH]c4ccccc4c3C3CCC(C(C)(C)C)CC3C2C1=O` (stereo unspecified), for which the TGI in [1] was more than 100 µM; in [2] it was 39 µM; in [3], 56.3 µM; in test [4] it was 70 µM; in test [5] it was 55.4 µM; in test [7] it was 56.1 µM. The values for the TGI in [8], in [9] and in test [10] were 51.3 µM, 80.6 µM and more than 100 µM, respectively.
As to `CNC(=O)OCC1=C(COC(=O)NC)CN(c2ccccc2)C1`, the TGI in [1], in test [2], in test [3], in test [4], in test [6] and in [7] was more than 100 µM throughout. The TGI in test [8], in test [9] and in [10] was more than 100 µM each time.
In the case of `CCCCCCN1C(=O)CN=C1Nc1ccc2cc3ccc(NC4=NCC(=O)N4CCCCCC)cc3nc2c1`, the GI50 in [1] is 1.94 µM; in [2], 1.95 µM; in test [3] it was 1.94 µM; in test [5], 1.79 µM; in test [6] it was 1.81 µM; in test [7], 2.07 µM. For the same molecule, the GI50 in test [8] was 1.52 µM; in [9], 1.53 µM; in [10], 1.24 µM. In addition, the TGI in [1] was 4.21 µM; in test [2], 4.84 µM; in [3], 3.87 µM; in test [5], 3.91 µM; in test [6], 4.12 µM; in test [7] it was 5.52 µM. Further, the TGI was found to be 3.22 µM in test [8], 4.22 µM in [9] and 2.54 µM in test [10].
For `CCOC(=O)C1=C(c2ccccc2)N(Cc2ccccc2)C2(O)C=CC(=O)C3C(=O)N(c4ccccc4)C(=O)C132` (stereo unspecified), the GI50 in [1] is 1.65 µM; in test [2], 1.92 µM; in test [3] it was 2.2 µM; in [4], 1.89 µM; in test [6], 3.23 µM; in test [7], 1.27 µM. The GI50 in test [8] is 1.91 µM; in test [9] it was 1.17 µM. In addition, the TGI in test [1] was 3.92 µM; in test [2], 4.04 µM; in [3] it was 4.98 µM; in test [4] it was 5.01 µM; in test [6], 15.5 µM; in test [7], 4.35 µM. For the same molecule, the TGI in [8] is 3.75 µM; in test [9], 4.13 µM.
For the molecule `O=C(CC(C(=O)O)N1CCOCC1)c1ccccc1` (stereo unspecified), the TGI was 69.4 µM in test [1]; 30.8 µM in test [2]; 32.4 µM in test [3]; 35.5 µM in [4]; more than 100 µM in test [5]; 47.3 µM in [6]. Moreover, the TGI in test [7] stood at 42.1 µM; in [8], 34.3 µM; in test [9], 35.5 µM.

Values taken from PubChem BioAssay (NCI).
